Our source for the IC50 values is ChEMBL document CHEMBL1201861, “Genomics of Drug Sensitity in Cancer screening data, Wellcome Trust Sanger Institute”.

A word on the IC50: it is the concentration that inhibits the measured activity by half.

The first assay relates to MFE-296. The experiment in a line: SANGER: Inhibition of human MFE-296 cell growth in a cell viability assay. Type of assay: functional, cell-based.
Conditions: not given
Molecule `COC(=O)[C@H](CCSC)NC(=O)c1ccc(NC[C@@H](N)CS)cc1-c1ccccc1` had an IC50 greater than 1.02 µM.

`Cc1ccc(C(=O)Nc2ccc(CN3CCN(C)CC3)c(C(F)(F)F)c2)cc1C#Cc1cnc2cccnn12` [PONATINIB] returned an IC50 of 0.118 µM.

The molecule `CCCCCCCCCCCC1=C(O)C(=O)C=C(O)C1=O` [EMBELIN] yielded an IC50 of 14.4 µM.

With `COc1ccc(-c2cc3nccn3c(Nc3ncccc3C(N)=O)n2)cc1OC`, the IC50 is greater than 8 µM.

`O=S(=O)(O)c1ccc2cc(/N=N/c3cc(S(=O)(=O)O)c4cccnc4c3O)ccc2c1` yielded an IC50 greater than 16 µM.

Another assay concerns EW-7. In words: SANGER: Inhibition of human EW-7 cell growth in a cell viability assay. The format is functional, cell-based.
Conditions: not given
Consider `COC(=O)[C@H](CCSC)NC(=O)c1ccc(NC[C@@H](N)CS)cc1-c1ccccc1`, for which the IC50 is greater than 1.02 µM.

`Cc1ccc(C(=O)Nc2ccc(CN3CCN(C)CC3)c(C(F)(F)F)c2)cc1C#Cc1cnc2cccnn12` [PONATINIB]: the IC50 is greater than 0.512 µM.

For `CCCCCCCCCCCC1=C(O)C(=O)C=C(O)C1=O` [EMBELIN], half-maximal inhibition (IC50) required 23.2 µM.

On to `COc1ccc(-c2cc3nccn3c(Nc3ncccc3C(N)=O)n2)cc1OC`, for which the IC50 came out at 1.98 µM. Compared with the last molecule, the IC50 is about 12-fold lower.

In turn, `O=S(=O)(O)c1ccc2cc(/N=N/c3cc(S(=O)(=O)O)c4cccnc4c3O)ccc2c1` showed an IC50 greater than 16 µM.

The next assay has as its system IPC-298. The experiment in a line: SANGER: Inhibition of human IPC-298 cell growth in a cell viability assay. Type of assay: functional, cell-based.
Conditions: not given
For `COC(=O)[C@H](CCSC)NC(=O)c1ccc(NC[C@@H](N)CS)cc1-c1ccccc1`, the IC50 was greater than 1.02 µM.

The molecule `Cc1ccc(C(=O)Nc2ccc(CN3CCN(C)CC3)c(C(F)(F)F)c2)cc1C#Cc1cnc2cccnn12` [PONATINIB] registered a half-inhibitory concentration (IC50) greater than 0.512 µM.

Turning to `CCCCCCCCCCCC1=C(O)C(=O)C=C(O)C1=O` [EMBELIN], the IC50 amounted to 13.4 µM.

`COc1ccc(-c2cc3nccn3c(Nc3ncccc3C(N)=O)n2)cc1OC`: the IC50 was greater than 8 µM.

The molecule `O=S(=O)(O)c1ccc2cc(/N=N/c3cc(S(=O)(=O)O)c4cccnc4c3O)ccc2c1` came in with an IC50 greater than 16 µM.

The next assay relates to RT-4. In words: SANGER: Inhibition of human RT4 cell growth in a cell viability assay. Type of assay: functional, cell-based.
Conditions: not given
`COC(=O)[C@H](CCSC)NC(=O)c1ccc(NC[C@@H](N)CS)cc1-c1ccccc1` registered an IC50 greater than 1.02 µM.

`Cc1ccc(C(=O)Nc2ccc(CN3CCN(C)CC3)c(C(F)(F)F)c2)cc1C#Cc1cnc2cccnn12` [PONATINIB] displayed an IC50 of 0.451 µM.

The molecule `CCCCCCCCCCCC1=C(O)C(=O)C=C(O)C1=O` [EMBELIN] yielded a half-maximal inhibitory concentration (IC50) greater than 32 µM.

Regarding `COc1ccc(-c2cc3nccn3c(Nc3ncccc3C(N)=O)n2)cc1OC`, the IC50 is 6.56 µM.

In the case of `O=S(=O)(O)c1ccc2cc(/N=N/c3cc(S(=O)(=O)O)c4cccnc4c3O)ccc2c1`, the IC50 was greater than 16 µM.

Another assay concerns NCI-H1734. In words: cells. The format is functional, cell-based. As to conditions: Homo sapiens.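 Also: growth inhibition of human NCI-H1734 cells, read out with a cell viability assay.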
Description: SANGER: Inhibition of human NCI-H1734 cell growth in a cell viability assay.
`COC(=O)[C@H](CCSC)NC(=O)c1ccc(NC[C@@H](N)CS)cc1-c1ccccc1`: the IC50 is greater than 1.02 µM.

Take `Cc1ccc(C(=O)Nc2ccc(CN3CCN(C)CC3)c(C(F)(F)F)c2)cc1C#Cc1cnc2cccnn12` [PONATINIB]: the IC50 is greater than 0.512 µM.

Consider `CCCCCCCCCCCC1=C(O)C(=O)C=C(O)C1=O` [EMBELIN], for which the IC50 stood at 15 µM. That is a double-digit micromolar value.

`COc1ccc(-c2cc3nccn3c(Nc3ncccc3C(N)=O)n2)cc1OC` returned an IC50 of 4.86 µM.

`O=S(=O)(O)c1ccc2cc(/N=N/c3cc(S(=O)(=O)O)c4cccnc4c3O)ccc2c1` registered an IC50 greater than 16 µM.

The test system of the next assay is NCI-H2227. The experiment in a line: cells. The format is functional, cell-based. As to conditions: Homo sapiens.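 Also: growth inhibition of the human cell line, read out with a cell viability assay.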
Description: SANGER: Inhibition of human NCI-H2227 cell growth in a cell viability assay.
For the molecule `COC(=O)[C@H](CCSC)NC(=O)c1ccc(NC[C@@H](N)CS)cc1-c1ccccc1`, the IC50 was greater than 1.02 µM.

Take `Cc1ccc(C(=O)Nc2ccc(CN3CCN(C)CC3)c(C(F)(F)F)c2)cc1C#Cc1cnc2cccnn12` [PONATINIB]: the IC50 was greater than 0.512 µM.

For the molecule `CCCCCCCCCCCC1=C(O)C(=O)C=C(O)C1=O` [EMBELIN], the IC50 was greater than 32 µM.

As to `COc1ccc(-c2cc3nccn3c(Nc3ncccc3C(N)=O)n2)cc1OC`, the IC50 was greater than 8 µM.

The molecule `O=S(=O)(O)c1ccc2cc(/N=N/c3cc(S(=O)(=O)O)c4cccnc4c3O)ccc2c1` had an IC50 greater than 16 µM.

The next assay relates to NCI-H1618. In words: cells. The format is functional, cell-based. As to conditions: Homo sapiens.
Description: SANGER: Inhibition of human NCI-H1618 cell growth in a cell viability assay.
Molecule `COC(=O)[C@H](CCSC)NC(=O)c1ccc(NC[C@@H](N)CS)cc1-c1ccccc1` showed an IC50 greater than 1.02 µM.

In turn, `Cc1ccc(C(=O)Nc2ccc(CN3CCN(C)CC3)c(C(F)(F)F)c2)cc1C#Cc1cnc2cccnn12` [PONATINIB] displayed an IC50 greater than 0.512 µM.

The molecule `CCCCCCCCCCCC1=C(O)C(=O)C=C(O)C1=O` [EMBELIN] had an IC50 greater than 32 µM.

On to `COc1ccc(-c2cc3nccn3c(Nc3ncccc3C(N)=O)n2)cc1OC`, for which the IC50 was greater than 8 µM.

Turning to `O=S(=O)(O)c1ccc2cc(/N=N/c3cc(S(=O)(=O)O)c4cccnc4c3O)ccc2c1`, the half-maximal inhibitory concentration (IC50) is greater than 16 µM.

The subject of a further assay is NCI-H838. In words: cells. Type of assay: functional, cell-based. The note with it: Homo sapiens.
Description: SANGER: Inhibition of human NCI-H838 cell growth in a cell viability assay.
For the molecule `COC(=O)[C@H](CCSC)NC(=O)c1ccc(NC[C@@H](N)CS)cc1-c1ccccc1`, the IC50 was greater than 1.02 µM.

`Cc1ccc(C(=O)Nc2ccc(CN3CCN(C)CC3)c(C(F)(F)F)c2)cc1C#Cc1cnc2cccnn12` [PONATINIB]: the IC50 is greater than 0.512 µM.

Molecule `CCCCCCCCCCCC1=C(O)C(=O)C=C(O)C1=O` [EMBELIN] came in with an IC50 greater than 32 µM.

Turning to `COc1ccc(-c2cc3nccn3c(Nc3ncccc3C(N)=O)n2)cc1OC`, the IC50 was greater than 8 µM.

For `O=S(=O)(O)c1ccc2cc(/N=N/c3cc(S(=O)(=O)O)c4cccnc4c3O)ccc2c1`, the IC50 is greater than 16 µM.

For the next assay, the system named is EFE-184. The experiment in a line: cells. The format is functional, cell-based. The note with it: Homo sapiens.
Description: SANGER: Inhibition of human EFE-184 cell growth in a cell viability assay.
In turn, `COC(=O)[C@H](CCSC)NC(=O)c1ccc(NC[C@@H](N)CS)cc1-c1ccccc1` returned an IC50 greater than 1.02 µM.

Consider `Cc1ccc(C(=O)Nc2ccc(CN3CCN(C)CC3)c(C(F)(F)F)c2)cc1C#Cc1cnc2cccnn12` [PONATINIB], for which the IC50 is greater than 0.512 µM.

With `CCCCCCCCCCCC1=C(O)C(=O)C=C(O)C1=O` [EMBELIN], the IC50 worked out at 26.1 µM.

In the case of `COc1ccc(-c2cc3nccn3c(Nc3ncccc3C(N)=O)n2)cc1OC`, the IC50 was greater than 8 µM.

Molecule `O=S(=O)(O)c1ccc2cc(/N=N/c3cc(S(=O)(=O)O)c4cccnc4c3O)ccc2c1` gave an IC50 greater than 16 µM.

In another assay the test system is TT. The experiment in a line: cells. Type of assay: functional, cell-based. The note with it: Homo sapiens.
Description: SANGER: Inhibition of human TT cell growth in a cell viability assay.
`COC(=O)[C@H](CCSC)NC(=O)c1ccc(NC[C@@H](N)CS)cc1-c1ccccc1`: the IC50 is greater than 1.02 µM.

As for `Cc1ccc(C(=O)Nc2ccc(CN3CCN(C)CC3)c(C(F)(F)F)c2)cc1C#Cc1cnc2cccnn12` [PONATINIB], the IC50 is greater than 0.512 µM.

Consider `CCCCCCCCCCCC1=C(O)C(=O)C=C(O)C1=O` [EMBELIN], for which the IC50 was determined as 23.5 µM.

`COc1ccc(-c2cc3nccn3c(Nc3ncccc3C(N)=O)n2)cc1OC` had an IC50 greater than 8 µM.

For the molecule `O=S(=O)(O)c1ccc2cc(/N=N/c3cc(S(=O)(=O)O)c4cccnc4c3O)ccc2c1`, the IC50 was greater than 16 µM.

The next assay relates to MES-SA. In words: cells. The format is functional, cell-based. The note with it: Homo sapiens.
Description: SANGER: Inhibition of human MES-SA cell growth in a cell viability assay.
Molecule `COC(=O)[C@H](CCSC)NC(=O)c1ccc(NC[C@@H](N)CS)cc1-c1ccccc1` came in with an IC50 greater than 1.02 µM.

Take `Cc1ccc(C(=O)Nc2ccc(CN3CCN(C)CC3)c(C(F)(F)F)c2)cc1C#Cc1cnc2cccnn12` [PONATINIB]: the IC50 was found to be 0.242 µM.

Regarding `CCCCCCCCCCCC1=C(O)C(=O)C=C(O)C1=O` [EMBELIN], the IC50 is 16.5 µM.

For `COc1ccc(-c2cc3nccn3c(Nc3ncccc3C(N)=O)n2)cc1OC`, half-maximal inhibition (IC50) was put at 0.96 µM.

Molecule `O=S(=O)(O)c1ccc2cc(/N=N/c3cc(S(=O)(=O)O)c4cccnc4c3O)ccc2c1` displayed an IC50 greater than 16 µM.

The test system of the next assay is DV-90. The experiment in a line: cells. Type of assay: functional, cell-based. The note with it: Homo sapiens.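 Also: Read-out is a viability assay, with IC50 reflecting the drop in DV-90 cell growth.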
Description: SANGER: Inhibition of human DV-90 cell growth in a cell viability assay.
Take `COC(=O)[C@H](CCSC)NC(=O)c1ccc(NC[C@@H](N)CS)cc1-c1ccccc1`: the IC50 was greater than 1.02 µM.

`Cc1ccc(C(=O)Nc2ccc(CN3CCN(C)CC3)c(C(F)(F)F)c2)cc1C#Cc1cnc2cccnn12` [PONATINIB]: the IC50 was greater than 0.512 µM.

For the molecule `CCCCCCCCCCCC1=C(O)C(=O)C=C(O)C1=O` [EMBELIN], the IC50 is 29.9 µM. That is a double-digit micromolar value.

Turning to `COc1ccc(-c2cc3nccn3c(Nc3ncccc3C(N)=O)n2)cc1OC`, the IC50 is greater than 8 µM.

`O=S(=O)(O)c1ccc2cc(/N=N/c3cc(S(=O)(=O)O)c4cccnc4c3O)ccc2c1` yielded an IC50 greater than 16 µM.

The test system of a further assay is Caov-4. The experiment in a line: cells. The format is functional, cell-based. As to conditions: Homo sapiens.
Description: SANGER: Inhibition of human Caov-4 cell growth in a cell viability assay.
In turn, `COC(=O)[C@H](CCSC)NC(=O)c1ccc(NC[C@@H](N)CS)cc1-c1ccccc1` yielded an IC50 greater than 1.02 µM.

Molecule `Cc1ccc(C(=O)Nc2ccc(CN3CCN(C)CC3)c(C(F)(F)F)c2)cc1C#Cc1cnc2cccnn12` [PONATINIB] gave an IC50 greater than 0.512 µM.

For `O=S(=O)(O)c1ccc2cc(/N=N/c3cc(S(=O)(=O)O)c4cccnc4c3O)ccc2c1`, the IC50 was greater than 16 µM.

The next assay deals with Calu-1. The experiment in a line: SANGER: Inhibition of human Calu-1 cell growth in a cell viability assay.
Conditions: not given
Type of assay: functional, cell-based.
With `COC(=O)[C@H](CCSC)NC(=O)c1ccc(NC[C@@H](N)CS)cc1-c1ccccc1`, the IC50 is greater than 1.02 µM.

Regarding `Cc1ccc(C(=O)Nc2ccc(CN3CCN(C)CC3)c(C(F)(F)F)c2)cc1C#Cc1cnc2cccnn12` [PONATINIB], the IC50 was greater than 0.512 µM.

Consider `CCCCCCCCCCCC1=C(O)C(=O)C=C(O)C1=O` [EMBELIN], for which the IC50 amounted to 17.1 µM.

Take `COc1ccc(-c2cc3nccn3c(Nc3ncccc3C(N)=O)n2)cc1OC`: the IC50 is greater than 8 µM.

As for `O=S(=O)(O)c1ccc2cc(/N=N/c3cc(S(=O)(=O)O)c4cccnc4c3O)ccc2c1`, the IC50 is greater than 16 µM.

Another assay deals with Caov-3 cell line. In words: cells. As to conditions: Homo sapiens. The format is functional, cell-based.
Description: SANGER: Inhibition of human Caov-3 cell growth in a cell viability assay.
The molecule `COC(=O)[C@H](CCSC)NC(=O)c1ccc(NC[C@@H](N)CS)cc1-c1ccccc1` displayed an IC50 greater than 1.02 µM.

As for `Cc1ccc(C(=O)Nc2ccc(CN3CCN(C)CC3)c(C(F)(F)F)c2)cc1C#Cc1cnc2cccnn12` [PONATINIB], the IC50 is greater than 0.512 µM.

`CCCCCCCCCCCC1=C(O)C(=O)C=C(O)C1=O` [EMBELIN] had an IC50 greater than 32 µM.

As to `COc1ccc(-c2cc3nccn3c(Nc3ncccc3C(N)=O)n2)cc1OC`, the IC50 is greater than 8 µM.

The molecule `O=S(=O)(O)c1ccc2cc(/N=N/c3cc(S(=O)(=O)O)c4cccnc4c3O)ccc2c1` came in with an IC50 greater than 16 µM.

Another assay has as its system MDA-MB-468. In words: cells. The format is functional, cell-based. As to conditions: Homo sapiens.
Description: SANGER: Inhibition of human MDA-MB-468 cell growth in a cell viability assay.
As for `COC(=O)[C@H](CCSC)NC(=O)c1ccc(NC[C@@H](N)CS)cc1-c1ccccc1`, the IC50 is greater than 1.02 µM.

In turn, `Cc1ccc(C(=O)Nc2ccc(CN3CCN(C)CC3)c(C(F)(F)F)c2)cc1C#Cc1cnc2cccnn12` [PONATINIB] had an IC50 greater than 0.512 µM.

The molecule `CCCCCCCCCCCC1=C(O)C(=O)C=C(O)C1=O` [EMBELIN] gave an IC50 greater than 32 µM.

`COc1ccc(-c2cc3nccn3c(Nc3ncccc3C(N)=O)n2)cc1OC` registered an IC50 greater than 8 µM.

With `O=S(=O)(O)c1ccc2cc(/N=N/c3cc(S(=O)(=O)O)c4cccnc4c3O)ccc2c1`, the IC50 was greater than 16 µM.
